Where a name gives a salt, the structure may show the parent alone.

The record followed here is US20230279025A1, “KRAS G12D INHIBITORS” (Mirati Therapeutics, Inc., priority 2020, published 2023).

The target of this experiment is KRas G12D (Homo sapiens (Human), UniProt P01116, G12D). The experiment in a line: KRas G12D Binding Assay (TR-FRET displacement of Cy5 labelled tracer). The settings on record: GDP-loaded KRAS G12D (amino acids 1:169), 60 minute incubation at 22° C. As to the method: After a 60 minute incubation at 22° C., the reaction was measured using a PerkinElmer EnVision multimode plate reader via TR-FRET dual wavelength detection, and the percent of control (POC) calculated using a ratiometric emission factor. […] The POC values were fit to a 4-parameter logistic curve and the IC50 value was determined as the concentration where the curve crosses 50 POC.
ND stands for “not determined.”

Chain of KRas G12D (P01116 other isoform, or with tags, fused parts or gaps G12D): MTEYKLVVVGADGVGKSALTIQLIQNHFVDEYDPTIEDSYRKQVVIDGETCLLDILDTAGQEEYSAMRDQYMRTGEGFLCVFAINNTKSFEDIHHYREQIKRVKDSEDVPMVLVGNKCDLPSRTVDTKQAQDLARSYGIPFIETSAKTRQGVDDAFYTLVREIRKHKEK

Take `Cn1cnc2ccc(Oc3nc(N4C[C@H]5CC[C@@H](C4)N5)c4cnc(-c5cccc6cccc(Cl)c56)c(F)c4n3)cc21` [Example 148, 4-((1R,5S)-3,8-diazabicyclo[3.2.1]octan-3-yl)-7-(8-chloronaphthalen-1-yl)-8-fluoro-2-((1-methyl-1H-benzo[d]imidazol-6-yl)oxy)pyrido[4,3-d]pyrimidine]: the IC50 was found to be 5.18 µM. To `CNc1c(F)cccc1-c1ncc2c(N3C[C@H]4CC[C@@H](C3)N4)nc(OCC34CCCN3CCC4)nc2c1F` [Example 268, 2-(4-((1R,5S)-3,8-diazabicyclo[3.2.1]octan-3-yl)-8-fluoro-2-((hexahydro-1H-pyrrolizin-7a-yl)methoxy)pyrido[4,3-d]pyrimidin-7-yl)-6-fluoro-N-methylaniline] belongs 1.55 µM; to `C#Cc1cccc2cc(O)cc(-c3ncc4c(N5C[C@H]6CC[C@@H](C5)N6)ncnc4c3F)c12` [Example 244, 4-(4-((1R,5S)-3,8-diazabicyclo[3.2.1]octan-3-yl)-8-fluoropyrido[4,3-d]pyrimidin-7-yl)-5-ethynylnaphthalen-2-ol], 0.0042 µM.

Consider `FCCc1cccc2cccc(-c3ncc4c(N5C[C@H]6CC[C@@H](C5)N6)nc(OCC56CCCN5CCC6)nc4c3F)c12` [Example 248, 4-((1R,5S)-3,8-diazabicyclo[3.2.1]octan-3-yl)-8-fluoro-7-(8-(2-fluoroethyl)naphthalen-1-yl)-2-((tetrahydro-1H-pyrrolizin-7a(5H)-yl)methoxy)pyrido[4,3-d]pyrimidine], for which the half-inhibitory concentration (IC50) was 0.0032 µM. For the compound `Cn1ccc2cccc(-c3ncc4c(N5C[C@H]6CC[C@@H](C5)N6)nc(OCC56CCCN5CCC6)nc4c3F)c21` [Example 446, 4-((1R,5S)-3,8-diazabicyclo[3.2.1]octan-3-yl)-8-fluoro-7-(1-methyl-1H-indol-7-yl)-2-((tetrahydro-1H-pyrrolizin-7a(5H)-yl)methoxy)pyrido[4,3-d]pyrimidine], the IC50 turned out to be 0.357 µM. To `CCc1cccc2cc(O)cc(-c3ncc4c(N5C[C@H]6CC[C@@H](C5)N6)nc(OC[C@]56CCCN5[C@@H](COC(=O)NC)CC6)nc4c3F)c12` [Example 433, ((3R,7aR)-7a-(((4-((1R,5S)-3,8-diazabicyclo[3.2.1]octan-3-yl)-7-(8-ethyl-3-hydroxynaphthalen-1-yl)-8-fluoropyrido[4,3-d]pyrimidin-2-yl)oxy)methyl)hexahydro-1H-pyrrolizin-3-yl)methyl methylcarbamate] belongs 0.0009 µM; to `CC(C)c1ccccc1-c1ncc2c(N3CC4CCC(C3)N4)nc(OCC34CCCN3C[C@H](F)C4)nc2c1F` (stereo partly drawn) [Example 348, 4-((1R,5S)-3,8-diazabicyclo[3.2.1]octan-3-yl)-8-fluoro-2-((2-fluorotetrahydro-1H-pyrrolizin-7a(5H)-yl)methoxy)-7-(2-isopropylphenyl)pyrido[4,3-d]pyrimidine], 0.0155 µM; to `C#Cc1c(F)ccc2cccc(-c3ncc4c(N5C[C@H]6CC[C@@H](C5)N6)nc(OC[C@@]56CCCN5C[C@H](F)C6)nc4c3F)c12` [Example 281, 4-((1R,5S)-3,8-diazabicyclo[3.2.1]octan-3-yl)-7-(8-ethynyl-7-fluoronaphthalen-1-yl)-8-fluoro-2-(((2R,7aS)-2-fluorohexahydro-1H-pyrrolizin-7a-yl)methoxy)pyrido[4,3-d]pyrimidine], 0.0009 µM.

For `Fc1c(-c2ccccc2OC(F)(F)F)ncc2c(N3C[C@H]4CC[C@@H](C3)N4)nc(OCC34CCCN3CCC4)nc12` [Example 229, 4-((1R,5S)-3,8-diazabicyclo[3.2.1]octan-3-yl)-8-fluoro-2-((tetrahydro-1H-pyrrolizin-7a(5H)-yl)methoxy)-7-(2-(trifluoromethoxy)phenyl)pyrido[4,3-d]pyrimidine bis-hydrochloride], the IC50 worked out at 0.121 µM. The compound `O=C(OC[C@H]1CC[C@@]2(COc3nc(N4CC5CCC(C4)N5)c4cnc(-c5cccc6cccc(Cl)c56)c(F)c4n3)CCCN12)N1CCCCC1` [Example 444, ((3R,7aR)-7a-(((4-(3,8-diazabicyclo[3.2.1]octan-3-yl)-7-(8-chloronaphthalen-1-yl)-8-fluoropyrido[4,3-d]pyrimidin-2-yl)oxy)methyl)hexahydro-1H-pyrrolizin-3-yl)methyl piperidine-1-carboxylate] came in with an IC50 of 0.0055 µM. `CC1(N)CN(c2nc(N3C[C@H]4CC[C@@H](C3)N4)c3cnc(-c4cccc5cccc(Cl)c45)c(F)c3n2)C1` [Example 125, 1-(4-((1R,5S)-3,8-diazabicyclo[3.2.1]octan-3-yl)-7-(8-chloronaphthalen-1-yl)-8-fluoropyrido[4,3-d]pyrimidin-2-yl)-3-methylazetidin-3-amine] showed a concentration for half-maximal inhibition (IC50) of 0.667 µM. To `CC(C)c1cccc(C(C)C)c1-c1ncc2c(N3C[C@H]4CC[C@@H](C3)N4)nc(OCC34CCCN3CC(F)C4)nc2c1F` (stereo partly drawn) [Example 394, 4-((1R,5S)-3,8-diazabicyclo[3.2.1]octan-3-yl)-7-(2,6-diisopropylphenyl)-8-fluoro-2-((2-fluorotetrahydro-1H-pyrrolizin-7a(5H)-yl)methoxy)pyrido[4,3-d]pyrimidine] belongs 2.5 µM; to `Fc1c(-c2cccc3cccc(-c4c[nH]nn4)c23)ncc2c(N3C[C@H]4CC[C@@H](C3)N4)nc(OCC34CCCN3CCC4)nc12` [Example 180, 7-(8-(1H-1,2,3-triazol-4-yl)naphthalen-1-yl)-4-((1R,5S)-3,8-diazabicyclo[3.2.1]octan-3-yl)-8-fluoro-2-((hexahydro-1H-pyrrolizin-7a-yl)methoxy)pyrido[4,3-d]pyrimidine], 0.0761 µM. `Cn1nccc1CCOc1nc(N2C[C@H]3CC[C@@H](C2)N3)c2cnc(-c3cccc4cccc(Cl)c34)c(F)c2n1` [Example 144, 4-((1R,5S)-3,8-diazabicyclo[3.2.1]octan-3-yl)-7-(8-chloronaphthalen-1-yl)-8-fluoro-2-(2-(1-methyl-1H-pyrazol-5-yl)ethoxy)pyrido[4,3-d]pyrimidine] returned an IC50 of 1.7 µM. To `CN1CCC[C@H]1COc1nc(N2CC3CCC(C2)N3)c2cnc(-c3cccc4cccc(C#N)c34)c(F)c2n1` [Example 192] belongs 0.225 µM; to `Oc1cc(-c2ncc3c(N4C[C@H]5CC[C@@H](C4)N5)ncnc3c2F)c2ccccc2c1` [Example 181, 4-(4-((1R,5S)-3,8-diazabicyclo[3.2.1]octan-3-yl)-8-fluoropyrido[4,3-d]pyrimidin-7-yl)naphthalen-2-ol], 0.573 µM; to `C#Cc1cccc2cc(OC)cc(-c3ncc4c(N5C[C@H]6CC[C@@H](C5)N6)nc(OCC56CCCN5CCC6)nc4c3F)c12` [Example 231, 4-((1R,5S)-3,8-diazabicyclo[3.2.1]octan-3-yl)-7-(8-ethynyl-3-methoxynaphthalen-1-yl)-8-fluoro-2-((hexahydro-1H-pyrrolizin-7a-yl)methoxy)pyrido[4,3-d]pyrimidine], 0.0198 µM. To `CCCc1ccccc1-c1ncc2c(N3C[C@H]4CC[C@@H](C3)N4)nc(OCC34CCCN3CCC4)nc2c1F` [Example 447, 4-((1R,5S)-3,8-diazabicyclo[3.2.1]octan-3-yl)-8-fluoro-7-(2-propylphenyl)-2-((tetrahydro-1H-pyrrolizin-7a-(5H)-yl)methoxy)pyrido[4,3-d]pyrimidine] belongs 0.297 µM.
